Values of other authors, collected in PubChem BioAssay AID1259409 (Chemical Carcinogenesis Research Information System (CCRIS), 2018).

Test system: rodent chemically induced tumor inhibition, incidence and multiplicity
Experiment: CCRIS tumor inhibitor studies

For `COc1cc(/C=C/C(=O)O)ccc1O`, the “tumour outcome (control, treated, inhibition, significance)” value (Carcinogen: AZOXYMETHANE [25843-45-2], Dose [Inhibitor]: 0, 500 PPM IN DIET FOR 23 WK BEGINNING POST LAST CARCINOGEN DOSE (STUDY DURATION: 35 WK), Route [Inhibitor]: ORAL, Species: RAT, Strain/Sex: F344/MALE, Target Tissue: Type of Lesion: LARGE INTESTINE: TUMOR, Dose [Carcinogen]: 15 MG/KG 3X/WK FOR 12 WK (STUDY DURATION: 35 WK), Promoter: NONE) is listed as 11%, 32%, -190%, not significant, the “tumour outcome (control, treated, inhibition, significance)” value (Carcinogen: AZOXYMETHANE [25843-45-2], Dose [Inhibitor]: 0, 500 PPM IN DIET FOR 23 WK BEGINNING POST LAST CARCINOGEN DOSE (STUDY DURATION: 35 WK), Route [Inhibitor]: ORAL, Species: RAT, Strain/Sex: F344/MALE, Target Tissue: Type of Lesion: SMALL INTESTINE: TUMOR, Dose [Carcinogen]: 15 MG/KG 3X/WK FOR 12 WK (STUDY DURATION: 35 WK), Promoter: NONE) is listed as 18%, 27%, -50%, not significant and the “tumour outcome (control, treated, inhibition, significance)” value (Carcinogen: AZOXYMETHANE [25843-45-2], Dose [Inhibitor]: 250 PPM IN DIET FOR 4 WK BEGINNING 1 WK PRIOR TO FIRST CARCINOGEN DOSE (STUDY DURATION: 35 WK), Route [Inhibitor]: ORAL, Species: RAT, Strain/Sex: F344/MALE, Target Tissue: Type of Lesion: LARGE INTESTINE: TUMOR, Dose [Carcinogen]: 15 MG/KG 1X/WK FOR 3 WK (STUDY DURATION: 35 WK), Promoter: NONE) is listed as 59%, 32%, 46%, not significant. For the same compound, the “tumour outcome (control, treated, inhibition, significance)” value (Carcinogen: AZOXYMETHANE [25843-45-2], Dose [Inhibitor]: 250 PPM IN DIET FOR 4 WK BEGINNING 1 WK PRIOR TO FIRST CARCINOGEN DOSE (STUDY DURATION: 35 WK), Route [Inhibitor]: ORAL, Species: RAT, Strain/Sex: F344/MALE, Target Tissue: Type of Lesion: SMALL INTESTINE: TUMOR, Dose [Carcinogen]: 15 MG/KG 1X/WK FOR 3 WK (STUDY DURATION: 35 WK), Promoter: NONE) was 23%, 5%, 78%, not significant, the “tumour outcome (control, treated, inhibition, significance)” value (Carcinogen: AZOXYMETHANE [25843-45-2], Dose [Inhibitor]: 250 PPM IN DIET FOR 31 WK BEGINNING 1 WK POST LAST CARCINOGEN DOSE (STUDY DURATION: 35 WK), Route [Inhibitor]: ORAL, Species: RAT, Strain/Sex: F344/MALE, Target Tissue: Type of Lesion: LARGE INTESTINE: TUMOR, Dose [Carcinogen]: 15 MG/KG 1X/WK FOR 3 WK (STUDY DURATION: 35 WK), Promoter: NONE) was 59%, 41%, 31%, not significant and the “tumour outcome (control, treated, inhibition, significance)” value (Carcinogen: AZOXYMETHANE [25843-45-2], Dose [Inhibitor]: 250 PPM IN DIET FOR 31 WK BEGINNING 1 WK POST LAST CARCINOGEN DOSE (STUDY DURATION: 35 WK), Route [Inhibitor]: ORAL, Species: RAT, Strain/Sex: F344/MALE, Target Tissue: Type of Lesion: SMALL INTESTINE: TUMOR, Dose [Carcinogen]: 15 MG/KG 1X/WK FOR 3 WK (STUDY DURATION: 35 WK), Promoter: NONE) was 23%, 23%, 0%, not significant. For the same compound, the “tumour outcome (control, treated, inhibition, significance)” value (Carcinogen: AZOXYMETHANE [25843-45-2], Dose [Inhibitor]: 500 PPM IN DIET FOR 4 WK BEGINNING 1 WK PRIOR TO FIRST CARCINOGEN DOSE (STUDY DURATION: 35 WK), Route [Inhibitor]: ORAL, Species: RAT, Strain/Sex: F344/MALE, Target Tissue: Type of Lesion: LARGE INTESTINE: TUMOR, Dose [Carcinogen]: 15 MG/KG 1X/WK FOR 3 WK (STUDY DURATION: 35 WK), Promoter: NONE) was 59%, 32%, 46%, not significant, the “tumour outcome (control, treated, inhibition, significance)” value (Carcinogen: AZOXYMETHANE [25843-45-2], Dose [Inhibitor]: 500 PPM IN DIET FOR 4 WK BEGINNING 1 WK PRIOR TO FIRST CARCINOGEN DOSE (STUDY DURATION: 35 WK), Route [Inhibitor]: ORAL, Species: RAT, Strain/Sex: F344/MALE, Target Tissue: Type of Lesion: SMALL INTESTINE: TUMOR, Dose [Carcinogen]: 15 MG/KG 1X/WK FOR 3 WK (STUDY DURATION: 35 WK), Promoter: NONE) was 23%, 5%, 78%, not significant and the “tumour outcome (control, treated, inhibition, significance)” value (Carcinogen: AZOXYMETHANE [25843-45-2], Dose [Inhibitor]: 500 PPM IN DIET FOR 31 WK BEGINNING 1 WK POST LAST CARCINOGEN DOSE (STUDY DURATION: 35 WK), Route [Inhibitor]: ORAL, Species: RAT, Strain/Sex: F344/MALE, Target Tissue: Type of Lesion: LARGE INTESTINE: TUMOR, Dose [Carcinogen]: 15 MG/KG 1X/WK FOR 3 WK (STUDY DURATION: 35 WK), Promoter: NONE) was 59%, 36%, 39%, not significant. The “tumour outcome (control, treated, inhibition, significance)” value (Carcinogen: AZOXYMETHANE [25843-45-2], Dose [Inhibitor]: 500 PPM IN DIET FOR 31 WK BEGINNING 1 WK POST LAST CARCINOGEN DOSE (STUDY DURATION: 35 WK), Route [Inhibitor]: ORAL, Species: RAT, Strain/Sex: F344/MALE, Target Tissue: Type of Lesion: SMALL INTESTINE: TUMOR, Dose [Carcinogen]: 15 MG/KG 1X/WK FOR 3 WK (STUDY DURATION: 35 WK), Promoter: NONE) was 23%, 27%, -17%, not significant, the “tumour outcome (control, treated, inhibition, significance)” value (Carcinogen: BENZO[A]PYRENE, 50-32-8, Dose [Inhibitor]: 0.06 MMOL/G OF DIET DAILY STARTING 8 D BEFORE AND CONTINUING THROUGH 3 D AFTER CARCINOGEN TREATMENT FOLLOWED BY OBSERVAT, Route [Inhibitor]: ORAL, Species: MOUSE, Strain/Sex: ICR/FEMALE, Target Tissue: Type of Lesion: FORESTOMACH: NEOPLASM, Dose [Carcinogen]: 1 MG IN 0.2 ML CORN OIL 2/WK FOR 4 WK, Promoter: NONE USED) was 100%, 90%, 10%, not significant and the “tumour outcome (control, treated, inhibition, significance)” value (Carcinogen: BENZO[A]PYRENE, 50-32-8, Dose [Inhibitor]: 100 MG/KG ADMINISTERED 1 HR BEFORE AND 6, 24, 48 AND 72 HR AFTER BENZO[A]PYRENE TREATMENT (STUDY DURATION: 6 MO), Route [Inhibitor]: INTRAPERITONEAL, Species: MOUSE, Strain/Sex: STRAIN-A/MALE, Target Tissue: Type of Lesion: LUNG: ADENOMA, Dose [Carcinogen]: 100 MG/KG ONCE, Promoter: NONE USED) was 18/18 (100%), 18/18 (100%), 0%, not significant. The “tumour outcome (control, treated, inhibition, significance)” value (Carcinogen: BENZO[A]PYRENE, 50-32-8, Dose [Inhibitor]: 100 MG/KG ADMINISTERED 1 HR BEFORE AND 6, 24, 48 AND 72 HR AFTER CARCINOGEN TREATMENT FOLLOWED BY 6 MO OBSERVATION PERIO, Route [Inhibitor]: INTRAPERITONEAL, Species: MOUSE, Strain/Sex: STRAIN A/MALE, Target Tissue: Type of Lesion: LUNG: ADENOMA, Dose [Carcinogen]: 100 MG/KG ONCE, Promoter: NONE USED) was 18/18 (100%), 18/18 (100%), 0%, not significant and the “tumour outcome (control, treated, inhibition, significance)” value (Carcinogen: N-NITROQUINOLINE-1-OXIDE, 56-57-5, Dose [Inhibitor]: 0, 500 PPM IN DIET FOR 7 WK BEGINNING 1 WK PRIOR TO START OF CARCINOGEN TREATMENT (STUDY DURATION: 32 WK), Route [Inhibitor]: ORAL, Species: RAT, Strain/Sex: F344\MALE, Target Tissue: Type of Lesion: TONGUE: CARCINOMA, Dose [Carcinogen]: 20 PPM IN DRINKING WATER FOR 5 WK, Promoter: NONE USED) was 9/15 (60%), 1/14 (7%), 88%, p=0.0035.
